Experimental data taken from publication PMC5218480 (PLoS ONE, 2017).

System: MV-4-11 cells
Experiment: Gene expression microarray analysis (Affymetrix PrimeView) and GSEA
Format: cell-based, human
Parameters: RFU PODN (11730768_x_at) / Fold change /veh PODN (11730768_x_at) / RFU LINC00158 (11744669_a_at) / Fold change /veh LINC00158 (11744669_a_at) / RFU DUSP10 (11751237_a_at) / Fold change /veh DUSP10 (11751237_a_at) / RFU ID3 (11757404_x_at) / Fold change /veh ID3 (11757404_x_at) / RFU PLEKHG5 (11737974_s_at) / Fold change /veh PLEKHG5 (11737974_s_at) / RFU LRRC4B (11730491_at) / Fold change /veh LRRC4B (11730491_at) / RFU GIMAP4 (11747438_a_at) / Fold change /veh GIMAP4 (11747438_a_at) / RFU KRT8 (11758183_x_at) / Fold change /veh KRT8 (11758183_x_at) / RFU CNN1 (11734310_a_at) / Fold change /veh CNN1 (11734310_a_at) / RFU VPS37D (11726825_at) / Fold change /veh VPS37D (11726825_at) / RFU C10orf10 (11716522_x_at) / Fold change /veh C10orf10 (11716522_x_at) / RFU KIR2DL2 /// KIR2DL4 /// KIR2DL5A /// KIR2DL5B /// KIR2DS1 /// KIR2DS2 /// KIR2DS3 /// KIR2DS4 /// KIR3DL3 /// KIR3DL3 /// KIR3DS1 (11738374_at) / Fold change /veh KIR2DL2 /// KIR2DL4 /// KIR2DL5A /// KIR2DL5B /// KIR2DS1 /// KIR2DS2 /// KIR2DS3 /// KIR2DS4 /// KIR3DL3 /// KIR3DL3 /// KIR3DS1 (11738374_at) / RFU C1QL1 (11718748_at) / Fold change /veh C1QL1 (11718748_at) / RFU TMPRSS4 (11747572_a_at) / Fold change /veh TMPRSS4 (11747572_a_at) / RFU HAMP (11756126_x_at) / Fold change /veh HAMP (11756126_x_at) / RFU RNFT2 (11725882_a_at) / Fold change /veh RNFT2 (11725882_a_at) / RFU NR4A2 (11747474_a_at) / Fold change /veh NR4A2 (11747474_a_at) / RFU ABCC12 (11746883_a_at) / Fold change /veh ABCC12 (11746883_a_at) / RFU TMEM136 (11760407_x_at) / Fold change /veh TMEM136 (11760407_x_at) / RFU CLDN22 /// WWC2 (11732394_at) / Fold change /veh CLDN22 /// WWC2 (11732394_at) / RFU HLA-DPB1 (11760878_x_at) / Fold change /veh HLA-DPB1 (11760878_x_at) / RFU SPINT1 (11716480_a_at) / Fold change /veh SPINT1 (11716480_a_at) / RFU GAP43 (11754022_s_at) / Fold change /veh GAP43 (11754022_s_at) / RFU A4GNT (11735810_at) / Fold change /veh A4GNT (11735810_at) / RFU PRB3 (11715151_x_at) / Fold change /veh PRB3 (11715151_x_at) / RFU TUBB4B (11761932_at) / Fold change /veh TUBB4B (11761932_at) / RFU CAPN14 (11732068_a_at) / Fold change /veh CAPN14 (11732068_a_at) / RFU TMCC2 (11721928_a_at) / Fold change /veh TMCC2 (11721928_a_at) / RFU IRGQ (11745062_a_at) / Fold change /veh IRGQ (11745062_a_at) / RFU FAM174B (11720279_a_at) / Fold change /veh FAM174B (11720279_a_at) / RFU TMPRSS4 (11748680_a_at) / Fold change /veh TMPRSS4 (11748680_a_at) / RFU FAM212B (11763350_a_at) / Fold change /veh FAM212B (11763350_a_at) / RFU PLEKHG5 (11743358_a_at) / Fold change /veh PLEKHG5 (11743358_a_at) / RFU ZSCAN30 (11745921_a_at) / Fold change /veh ZSCAN30 (11745921_a_at) / RFU CMKLR1 (11741424_a_at) / Fold change /veh CMKLR1 (11741424_a_at) / RFU LOC101060620 /// MAPK8IP1 (11723275_at) / Fold change /veh LOC101060620 /// MAPK8IP1 (11723275_at) / RFU SPTSSB (11747773_x_at) / Fold change /veh SPTSSB (11747773_x_at) / RFU PRSS12 (11739890_at) / Fold change /veh PRSS12 (11739890_at) / RFU BIN1 (11741810_x_at) / Fold change /veh BIN1 (11741810_x_at) / RFU WNT11 (11732464_a_at) / Fold change /veh WNT11 (11732464_a_at) / RFU C10orf10 (11716521_a_at) / Fold change /veh C10orf10 (11716521_a_at) / RFU C5orf56 (11738089_at) / Fold change /veh C5orf56 (11738089_at) / RFU CYB561 (11721691_x_at) / Fold change /veh CYB561 (11721691_x_at) / RFU ANKRD19P (11752326_a_at) / Fold change /veh ANKRD19P (11752326_a_at) / RFU OR2T12 /// OR2T33 /// OR2T8 (11738714_s_at) / Fold change /veh OR2T12 /// OR2T33 /// OR2T8 (11738714_s_at) / RFU VCAN (11748164_a_at) / Fold change /veh VCAN (11748164_a_at) / RFU JSRP1 (11732532_at) / Fold change /veh JSRP1 (11732532_at) / RFU KRTAP10-11 (11738290_x_at) / Fold change /veh KRTAP10-11 (11738290_x_at) / RFU MYO3A (11730013_a_at) / Fold change /veh MYO3A (11730013_a_at) / RFU EBF3 (11725865_a_at) / Fold change /veh EBF3 (11725865_a_at) / RFU CAMK2N1 (11719241_x_at) / Fold change /veh CAMK2N1 (11719241_x_at) / RFU C5orf56 (11738088_a_at) / Fold change /veh C5orf56 (11738088_a_at) / RFU OLFML3 (11715873_a_at) / Fold change /veh OLFML3 (11715873_a_at) / RFU LOC100653217 /// NTM (11731650_a_at) / Fold change /veh LOC100653217 /// NTM (11731650_a_at) / RFU MAPK11 (11762145_a_at) / Fold change /veh MAPK11 (11762145_a_at) / RFU FIZ1 (11724087_x_at) / Fold change /veh FIZ1 (11724087_x_at) / RFU OASL (11726364_x_at) / Fold change /veh OASL (11726364_x_at) / RFU SOX15 (11748057_x_at) / Fold change /veh SOX15 (11748057_x_at) / RFU CD79A (11719716_a_at) / Fold change /veh CD79A (11719716_a_at) / RFU HIST1H1D (11736915_at) / Fold change /veh HIST1H1D (11736915_at) / RFU CASKIN2 (11723855_a_at) / Fold change /veh CASKIN2 (11723855_a_at) / RFU LOC730098 (11760151_x_at) / Fold change /veh LOC730098 (11760151_x_at) / RFU OR4N2 (11742367_at) / Fold change /veh OR4N2 (11742367_at) / RFU PRRT2 (11749266_a_at) / Fold change /veh PRRT2 (11749266_a_at) / RFU SNX32 (11753110_a_at) / Fold change /veh SNX32 (11753110_a_at) / RFU CDHR5 (11726645_a_at) / Fold change /veh CDHR5 (11726645_a_at) / RFU RCAN1 (11760418_a_at) / Fold change /veh RCAN1 (11760418_a_at) / RFU FAM167A (11723789_a_at) / Fold change /veh FAM167A (11723789_a_at) / RFU FAM26E (11764081_at) / Fold change /veh FAM26E (11764081_at) / RFU ISYNA1 (11749810_s_at) / Fold change /veh ISYNA1 (11749810_s_at) / RFU ACY1 (11761880_at) / Fold change /veh ACY1 (11761880_at) / RFU 11764098_at / Fold change /veh 11764098_at / RFU SAMD14 (11745864_x_at) / Fold change /veh SAMD14 (11745864_x_at) / RFU NPB (11741838_a_at) / Fold change /veh NPB (11741838_a_at) / RFU TMPRSS6 (11731388_a_at) / Fold change /veh TMPRSS6 (11731388_a_at) / RFU KRTAP10-2 (11738614_at) / Fold change /veh KRTAP10-2 (11738614_at) / RFU ARHGAP8 /// PRR5-ARHGAP8 (11727945_x_at) / Fold change /veh ARHGAP8 /// PRR5-ARHGAP8 (11727945_x_at) / RFU KRTAP5-7 /// NADSYN1 (11734609_at) / Fold change /veh KRTAP5-7 /// NADSYN1 (11734609_at) / RFU RASL12 (11751679_a_at) / Fold change /veh RASL12 (11751679_a_at) / RFU CDKN2B (11736163_a_at) / Fold change /veh CDKN2B (11736163_a_at) / RFU PRF1 (11729649_at) / Fold change /veh PRF1 (11729649_at) / RFU, ZNF638 /// ZNF638-IT1 / Fold change vs veh, ZNF638 /// ZNF638-IT1 / RFU, PANK3 / Fold change vs veh, PANK3 / RFU, SH3YL1 / Fold change vs veh, SH3YL1 / RFU, ZEB2 / Fold change vs veh, ZEB2 / RFU, NRIP1 / Fold change vs veh, NRIP1 / RFU, PTTG1IP / Fold change vs veh, PTTG1IP / RFU, CAPN2 / Fold change vs veh, CAPN2 / RFU, MED14 / Fold change vs veh, MED14 / RFU, SNORA58 / Fold change vs veh, SNORA58 / RFU, C1orf63 / Fold change vs veh, C1orf63 / RFU, LRRFIP1 / Fold change vs veh, LRRFIP1 / RFU, NDUFAF7 / Fold change vs veh, NDUFAF7 / RFU, SLC12A2 / Fold change vs veh, SLC12A2 / RFU, IBTK / Fold change vs veh, IBTK / RFU, ESF1 / Fold change vs veh, ESF1 / Fold change vs veh, TMEM50B / RFU, TAOK1 / Fold change vs veh, TAOK1 / RFU, ACBD3 / Fold change vs veh, ACBD3 / RFU, TMA16 / Fold change vs veh, TMA16 / RFU, RWDD3 / Fold change vs veh, RWDD3 / RFU, BCAT1 / Fold change vs veh, BCAT1 / RFU, EDEM3 / Fold change vs veh, EDEM3 / RFU, TMEM33 / Fold change vs veh, TMEM33 / RFU, WDR75 / Fold change vs veh, WDR75 / RFU, AHCTF1 / Fold change vs veh, AHCTF1 / RFU, TFRC / Fold change vs veh, TFRC / RFU, ZDHHC17 / Fold change vs veh, ZDHHC17 / RFU, NOM1 / Fold change vs veh, NOM1 / RFU, ARL8B / Fold change vs veh, ARL8B / RFU, ZBTB11 / Fold change vs veh, ZBTB11 / RFU, TAMM41 / Fold change vs veh, TAMM41 / RFU, KIAA1704 /// LOC100996395 / Fold change vs veh, KIAA1704 /// LOC100996395 / RFU, ING1 / Fold change vs veh, ING1 / RFU, TRMT61B / Fold change vs veh, TRMT61B / RFU, FUBP3 / Fold change vs veh, FUBP3 / RFU, TP53 / Fold change vs veh, TP53 / RFU, TNKS2 / Fold change vs veh, TNKS2 / RFU, ZFP14 / Fold change vs veh, ZFP14 / RFU, ACTR2 / Fold change vs veh, ACTR2 / RFU, PPP3R1 / Fold change vs veh, PPP3R1 / RFU, PIK3R1 / Fold change vs veh, PIK3R1 / RFU, HNRNPA1 / Fold change vs veh, HNRNPA1 / RFU, RNF170 / Fold change vs veh, RNF170 / RFU, ZNF28 / Fold change vs veh, ZNF28 / RFU, RNGTT / Fold change vs veh, RNGTT / RFU, OGT / Fold change vs veh, OGT / RFU, BRD1 / Fold change vs veh, BRD1 / RFU, MARS / Fold change vs veh, MARS / RFU, ZNF655 / Fold change vs veh, ZNF655 / RFU, FAHD1 / Fold change vs veh, FAHD1 / RFU, BDP1 / Fold change vs veh, BDP1 / RFU, LRRCC1 / Fold change vs veh, LRRCC1 / RFU, ARID1A / Fold change vs veh, ARID1A / RFU, ZNF146 / Fold change vs veh, ZNF146 / RFU, ZNF330 / Fold change vs veh, ZNF330 / RFU, GPN3 / Fold change vs veh, GPN3 / RFU, C9orf123 / Fold change vs veh, C9orf123 / RFU, N4BP2L2 / Fold change vs veh, N4BP2L2 / RFU, ARFIP1 / Fold change vs veh, ARFIP1 / RFU, FAM179B / Fold change vs veh, FAM179B / RFU, BCL10 / Fold change vs veh, BCL10 / RFU, UHRF1BP1L / Fold change vs veh, UHRF1BP1L / RFU, BET1 / Fold change vs veh, BET1 / RFU, CNOT2 / Fold change vs veh, CNOT2 / RFU, ZNF268 / Fold change vs veh, ZNF268 / Fold change vs veh, ZNF507 / RFU, DGCR2 / Fold change vs veh, DGCR2 / RFU, WDSUB1 / Fold change vs veh, WDSUB1 / Fold change vs veh, HSP90B1 /// MIR3652 / RFU, ADSS / Fold change vs veh, ADSS / RFU, GK / Fold change vs veh, GK / RFU, ZNF148 / Fold change vs veh, ZNF148 / RFU, TAF9 / Fold change vs veh, TAF9 / RFU, SLC1A5 / Fold change vs veh, SLC1A5 / RFU, SLMO2 / Fold change vs veh, SLMO2 / RFU, ABCC4 / Fold change vs veh, ABCC4 / RFU, LOC101060439 /// RAP1B / Fold change vs veh, LOC101060439 /// RAP1B / RFU, RFX7 / Fold change vs veh, RFX7 / RFU, GTPBP10 / Fold change vs veh, GTPBP10 / RFU, CNEP1R1 / Fold change vs veh, CNEP1R1 / RFU, BIVM-ERCC5 /// ERCC5 / Fold change vs veh, BIVM-ERCC5 /// ERCC5 / RFU, ILF3 / Fold change vs veh, ILF3 / RFU 11762660_at / Fold change /veh 11762660_at / RFU VCAN (11757783_s_at) / Fold change /veh VCAN (11757783_s_at) / RFU DDX43 (11728927_at) / Fold change /veh DDX43 (11728927_at) / RFU KRT8 (11758188_x_at) / Fold change /veh KRT8 (11758188_x_at) / RFU NKD1 (11759106_at) / Fold change /veh NKD1 (11759106_at) / RFU SRD5A1 (11742802_a_at) / Fold change /veh SRD5A1 (11742802_a_at) / RFU TPSAB1 /// TPSB2 (11721975_s_at) / Fold change /veh TPSAB1 /// TPSB2 (11721975_s_at) / RFU GSTM3 (11746129_a_at) / Fold change /veh GSTM3 (11746129_a_at) / RFU IL23R (11737362_x_at) / Fold change /veh IL23R (11737362_x_at) / RFU TMEM51 (11727254_a_at) / Fold change /veh TMEM51 (11727254_a_at) / RFU PIWIL2 (11732686_x_at) / Fold change /veh PIWIL2 (11732686_x_at) / RFU ORM1 (11744905_x_at) / Fold change /veh ORM1 (11744905_x_at) / RFU CCDC152 (11743942_at) / Fold change /veh CCDC152 (11743942_at) / RFU ECM1 (11717891_a_at) / Fold change /veh ECM1 (11717891_a_at) / RFU IL23R (11748794_a_at) / Fold change /veh IL23R (11748794_a_at) / RFU TNFAIP8L3 (11732012_x_at) / Fold change /veh TNFAIP8L3 (11732012_x_at) / RFU MBOAT4 (11741988_at) / Fold change /veh MBOAT4 (11741988_at) / RFU 11764193_at / Fold change /veh 11764193_at / RFU TMEM53 (11763286_at) / Fold change /veh TMEM53 (11763286_at) / RFU MAGEB2 (11727129_at) / Fold change /veh MAGEB2 (11727129_at) / RFU TMEM200A (11744735_a_at) / Fold change /veh TMEM200A (11744735_a_at) / RFU CCDC152 (11751479_a_at) / Fold change /veh CCDC152 (11751479_a_at) / RFU FAM211A (11726209_a_at) / Fold change /veh FAM211A (11726209_a_at) / RFU RGS16 (11746705_a_at) / Fold change /veh RGS16 (11746705_a_at) / RFU VCAN (11755009_s_at) / Fold change /veh VCAN (11755009_s_at) / RFU RHOB (11743442_s_at) / Fold change /veh RHOB (11743442_s_at) / RFU RGS16 (11720943_a_at) / Fold change /veh RGS16 (11720943_a_at) / RFU RGS16 (11720944_at) / Fold change /veh RGS16 (11720944_at) / RFU, VPS4B / Fold change vs veh, VPS4B / RFU, CREB1 / Fold change vs veh, CREB1 / RFU, DNAJC13 / Fold change vs veh, DNAJC13 / RFU, GNAQ / Fold change vs veh, GNAQ / RFU, CDK5R1 / Fold change vs veh, CDK5R1 / RFU, ZRANB3 / Fold change vs veh, ZRANB3 / RFU, CUL4A / Fold change vs veh, CUL4A / RFU, CCNY / Fold change vs veh, CCNY / RFU, UFL1 / Fold change vs veh, UFL1 / RFU, COG3 / Fold change vs veh, COG3 / RFU, DIAPH2 / Fold change vs veh, DIAPH2 / RFU, SKA2 / Fold change vs veh, SKA2 / RFU, AFF3 / Fold change vs veh, AFF3 / RFU, LMF1 / Fold change vs veh, LMF1 / RFU, IPO11 / Fold change vs veh, IPO11 / RFU, DFFB / Fold change vs veh, DFFB / RFU, FOXP1 / Fold change vs veh, FOXP1 / RFU, CARD8 / Fold change vs veh, CARD8 / RFU, STRN3 / Fold change vs veh, STRN3 / RFU, ADK / Fold change vs veh, ADK / RFU, RASSF2 / Fold change vs veh, RASSF2 / RFU, WIPF1 / Fold change vs veh, WIPF1 / RFU, LARP1B / Fold change vs veh, LARP1B / RFU, RASA1 / Fold change vs veh, RASA1 / RFU, RB1 / Fold change vs veh, RB1 / RFU, PPFIA1 / Fold change vs veh, PPFIA1 / RFU, MAT2A / Fold change vs veh, MAT2A / RFU, CCT5 / Fold change vs veh, CCT5 / RFU, WDR92 / Fold change vs veh, WDR92 / RFU, CUX1 / Fold change vs veh, CUX1 / RFU, TTC7A / Fold change vs veh, TTC7A / RFU, TMEM135 / Fold change vs veh, TMEM135 / RFU, DEPTOR / Fold change vs veh, DEPTOR / RFU, CPM / Fold change vs veh, CPM / RFU, DNAJB6 / Fold change vs veh, DNAJB6 / RFU, CACNA2D3 / Fold change vs veh, CACNA2D3 / RFU, DTX4 / Fold change vs veh, DTX4 / RFU, TFCP2 / Fold change vs veh, TFCP2 / RFU, GMCL1 /// GMCL1P1 / Fold change vs veh, GMCL1 /// GMCL1P1 / RFU, AEBP2 / Fold change vs veh, AEBP2 / RFU, SNHG1 /// SNORD22 /// SNORD25 /// SNORD26 /// SNORD27 /// SNORD28 /// SNORD29 /// SNORD31 / Fold change vs veh, SNHG1 /// SNORD22 /// SNORD25 /// SNORD26 /// SNORD27 /// SNORD28 /// SNORD29 /// SNORD31 / Fold change (Aza/veh), C12orf56 (ProbeSet 11735607_a_at) / Fold change (ACY-1035/veh), C12orf56 (ProbeSet 11735607_a_at) / Fold change (Aza/veh), FGFR1OP (ProbeSet 11751329_s_at) / Fold change (ACY-1035/veh), FGFR1OP (ProbeSet 11751329_s_at) / Fold change (Aza/veh), VPS36 (ProbeSet 11739960_a_at) / Fold change (ACY-1035/veh), VPS36 (ProbeSet 11739960_a_at) / RFU SYPL1 (11715823_x_at) / Fold change /veh SYPL1 (11715823_x_at) / RFU IGFBP7 (11715501_s_at) / Fold change /veh IGFBP7 (11715501_s_at) / RFU REEP3 (11722064_at) / Fold change /veh REEP3 (11722064_at) / RFU IGLL1 (11728026_x_at) / Fold change /veh IGLL1 (11728026_x_at): dose or concentration left out as unconfirmed
Details: MV-4-11 cells, 48 hours

## Nc1ncn([C@@H]2O[C@H](CO)[C@@H](O)[C@H]2O)c(=O)n1 [azacitidine]
  Fold change /veh FAM174B (11720279_a_at): 1.12
